Residues, ends and D or L forms follow the SMILES beside them. *: point of attachment. Cbz = O=C(OCc1ccccc1)*
What was measured:
NDV F48E9 [1] = assay: microbe, parasite or virus in culture; type: cell-based, Newcastle disease virus; conditions: for IC50: avian paramyxovirus 1, 24 h
IFN-β = type: cell-based
β-catenin = type: cell-based
NDV La sota (II) = assay: microbe, parasite or virus in culture; type: cell-based, Newcastle disease virus; conditions: avian paramyxovirus 1, 24 h, read-out: IC50 La sota (II)
[2] = test system: NDV PPMV-1/SX-01/Ch/15(VI); assay: microbe, parasite or virus in culture; type: cell-based, Newcastle disease virus; conditions: avian paramyxovirus 1, 24 h, read-out: IC50 PPMV-1/SX-01/Ch/15(VI)
[3] = test system: NDV Blackbird/China/08(IX); assay: microbe, parasite or virus in culture; type: cell-based, Newcastle disease virus; conditions: avian paramyxovirus 1, 24 h, read-out: IC50 Blackbird/China/08(IX)
PRRSV = assay: microbe, parasite or virus in culture; type: cell-based, porcine reproductive and respiratory syndrome virus
HSP90β [4] = molecular target: T1, HSP90β (Gallus gallus, UniProt Q04619); assay: Drug affinity responsive target stability (DARTS), HSP90β; type: binding; conditions: 200 μM, DF-1 cell lysate, 50 ng of pronase
T1 construct: endogenous in cells; host or cells: DF-1 cell lysate
T1 sequence (Q04619 whole entry): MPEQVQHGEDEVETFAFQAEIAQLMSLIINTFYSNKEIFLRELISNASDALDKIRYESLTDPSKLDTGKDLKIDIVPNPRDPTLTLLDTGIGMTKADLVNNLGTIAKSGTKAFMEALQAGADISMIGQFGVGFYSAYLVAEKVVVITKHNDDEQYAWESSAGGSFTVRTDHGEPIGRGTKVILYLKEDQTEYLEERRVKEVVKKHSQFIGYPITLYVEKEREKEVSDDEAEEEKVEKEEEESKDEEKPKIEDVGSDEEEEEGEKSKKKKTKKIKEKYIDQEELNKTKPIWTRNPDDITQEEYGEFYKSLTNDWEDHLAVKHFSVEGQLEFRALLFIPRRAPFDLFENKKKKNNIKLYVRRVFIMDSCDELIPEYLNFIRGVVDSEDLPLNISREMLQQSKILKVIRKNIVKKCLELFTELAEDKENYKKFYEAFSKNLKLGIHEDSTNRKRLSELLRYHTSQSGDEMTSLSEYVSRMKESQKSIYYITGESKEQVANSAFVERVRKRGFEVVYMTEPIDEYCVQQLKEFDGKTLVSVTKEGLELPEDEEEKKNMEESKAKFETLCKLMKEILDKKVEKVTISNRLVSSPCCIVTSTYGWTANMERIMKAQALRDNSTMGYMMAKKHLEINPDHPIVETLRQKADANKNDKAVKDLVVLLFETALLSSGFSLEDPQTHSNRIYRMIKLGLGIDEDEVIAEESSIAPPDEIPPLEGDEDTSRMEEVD

GSK-3β [5] = type: binding
F48E9 L protein = type: cell-based, Newcastle disease virus
AIV = assay: microbe, parasite or virus in culture; type: cell-based, avian influenza virus
in vitro = conditions: chicken
NDV F48E9 [6] = type: cell-based, Newcastle disease virus
[7] = test system: PPRV, CDV, VSV, PRRSV, AIV, PRV; assay: organism not typed; type: cell-based; conditions: read-out: IC50 against these viruses (PPRV, CDV, VSV, PRRSV, AIV, PRV)
HSP90β [8] = molecular target: T1, HSP90β; assay: Cellular thermal shift assay (CETSA), HSP90β; type: binding; conditions: 200 μM, DF-1 cell lysate
VSV = assay: microbe, parasite or virus in culture; type: cell-based, vesicular stomatitis virus
NDV F48E9 [9] = type: cell-based, Newcastle disease virus; remark: listed apart in the source
[10] = test system: genes downstream of the Wnt/β-catenin pathway; type: cell-based
NDV F48E9 [11] = type: cell-based, Newcastle disease virus; remark: listed apart in the source
PRV = assay: microbe, parasite or virus in culture; type: cell-based, pseudorabies virus
chicken IFN-β promoter = type: cell-based
PPRV = assay: microbe, parasite or virus in culture; type: cell-based, peste des petits ruminants virus
NP, P protein = type: cell-based, Newcastle disease virus
Wnt/β-catenin pathway = type: cell-based
CDV = assay: microbe, parasite or virus in culture; type: cell-based, canine distemper virus
MX1 = type: cell-based
GSK-3β [12] = type: binding; remark: listed apart in the source
OASL = type: cell-based

Question: For C=CCNC1=C2C[C@@H](C)C[C@H](OC)[C@H](O)[C@@H](C)/C=C(\C)[C@H](OC(N)=O)[C@@H](OC)/C=C\C=C(/C)C(=O)NC(=CC1=O)C2=O [17-AAG], which “reduction of infectious virus particle production” value (NDV F48E9 [1]) is on record?
Answer: 4.19 Log

Question: Which results are given for [Cl-].[Li+] [LiCl, reference compound]?
Answer: expression of IFN-β (IFN-β): enhanced; reduction in infectious virus particle production (NDV F48E9 [1]): 2.69 Log

Question: Which “amounts of β-catenin in NDV-infected cells” value (β-catenin) does the source give for CC(C)C[C@@H](C=O)NC(=O)[C@H](CC(C)C)NC(=O)[C@H](CC(C)C)NC(=O)OCc1ccccc1 [MG-132] (Cbz-Leu-Leu-Leu-aldehyde) here?
Answer: significantly restored

Question: What does the source list for NC(=O)c1ncn([C@@H]2O[C@H](CO)[C@@H](O)[C@H]2O)n1 [Ribavirin, reference compound]?
Answer: IC50 (NDV F48E9 [1]): 8.62 ± 1.44 µM; IC50 (NDV La sota (II)): 7.97 ± 1.59 µM; IC50 [2]: 11.6 ± 2.13 µM; IC50 [3]: 10.4 ± 2.85 µM

Question: Which “reduction in mRNA expression level of PRRSV” value (PRRSV) does the source give for CCCCn1c2cc(O)ccc2c2ccnc(C)c21 [compound 11, 9-butyl-harmol] here?
Answer: > 80%

Question: What about the IC50 (PRRSV; Porcine reproductive and respiratory syndrome virus, MARC145, 24 h, read-out: IC50 PRRSV) of the same molecule?
Answer: 540 ± 150 nM

Question: And the “expression of IFN-β with NDV infection” value (IFN-β)?
Answer: 1.95 fold

Question: What about the “expression of IFN-β without NDV infection” value (IFN-β) of the same molecule?
Answer: 3.04 fold

Question: What about the “pronase-induced digestion of HSP90β (DARTS)” value (HSP90β [4]) of the same molecule?
Answer: prevented

Question: And the “thermal stability of GSK-3β (CETSA)” value (GSK-3β [5])?
Answer: strongly changed the thermal stability

Question: What about the “expression of L” value (F48E9 L protein) of the same molecule?
Answer: significant reduction

Question: What about the “reduction in mRNA expression level of AIV” value (AIV) of the same molecule?
Answer: > 80%

Question: What about the IC50 (AIV; unidentified influenza virus, A549, 24 h, read-out: IC50 AIV) of the same molecule?
Answer: 530 ± 180 nM

Question: And the CC50 (in vitro)?
Answer: > 50 µM

Question: What about the “entry of NDV” value (NDV F48E9 [6]) of the same molecule?
Answer: no effect

Question: What about the “inhibitory rate (reduction compared to DMSO-treated cells), primary screening” value (NDV F48E9 [1]) of the same molecule?
Answer: higher than 99%

Question: And the “reduction in infectious virus particle production, high dose of NDV” value (NDV F48E9 [1])?
Answer: 3.08 Log

Question: And the “reduction of infectious virus particle production” value (NDV F48E9 [1])?
Answer: 5.26 Log

Question: And the IC50 (NDV F48E9 [1])?
Answer: 0.49 ± 0.11 µM

Question: What about the IC50 [7] of the same molecule?
Answer: 380 to 810 nM

Question: What about the “thermal stability of cellular HSP90β (CETSA)” value (HSP90β [8]) of the same molecule?
Answer: increased the thermal stability

Question: And the “reduction in mRNA expression level of VSV” value (VSV)?
Answer: > 80%

Question: And the IC50 (VSV; Vesicular stomatitis virus, BHK-21, 24 h, read-out: IC50 VSV)?
Answer: 430 ± 160 nM

Question: And the IC50 (NDV La sota (II))?
Answer: 0.58 ± 0.08 µM

Question: And the “viral inhibition in time-of-addition study” value (NDV F48E9 [9])?
Answer: significant viral inhibition

Question: And the “MYC upregulation (transcriptome)” value [10]?
Answer: 2.1287 fold

Question: And the “PPARgamma upregulation (transcriptome)” value [10]?
Answer: 2.7893 fold

Question: And the “WISP1 upregulation (transcriptome)” value [10]?
Answer: 5.2201 fold

Question: What about the NDV adsorption (NDV F48E9 [11]) of the same molecule?
Answer: not inhibited

Question: What about the “reduction of mRNA of PRV” value (PRV) of the same molecule?
Answer: 66.83%

Question: What about the IC50 (PRV; Suid alphaherpesvirus 1, BHK-21, 24 h, read-out: IC50 PRV) of the same molecule?
Answer: 810 ± 110 nM

Question: And the “IFN-β promoter activity with NDV infection” value (chicken IFN-β promoter)?
Answer: 2.89 fold

Question: And the “IFN-β promoter activity without NDV infection” value (chicken IFN-β promoter)?
Answer: 4.90 fold

Question: What about the “inhibitory rate (reduction) against PPRV” value (PPRV) of the same molecule?
Answer: higher than 99%

Question: And the “reduction of PPRV mRNA” value (PPRV)?
Answer: 100 fold

Question: And the IC50 (PPRV; peste-des-petits-ruminants virus, Vero, 24 h, read-out: IC50 PPRV)?
Answer: 380 ± 60 nM

Question: What about the IC50 [2] of the same molecule?
Answer: 0.71 ± 0.26 µM

Question: What about the “expression of NP and expression of P” value (NP, P protein) of the same molecule?
Answer: not affected

Question: What about the IC50 [3] of the same molecule?
Answer: 0.63 ± 0.3 µM

Question: What about the TOPFlash/FOPFlash luciferase activity (Wnt/β-catenin pathway) of the same molecule?
Answer: significantly activated

Question: And the “inhibitory rate (reduction) against CDV” value (CDV)?
Answer: higher than 99%

Question: And the “reduction of CDV mRNA” value (CDV)?
Answer: 100 fold

Question: And the IC50 (CDV; canine distemper virus, Vero, 24 h, read-out: IC50 CDV)?
Answer: 400 ± 120 nM

Question: What about the “expression of MX1 upon F48E9 infection” value (MX1) of the same molecule?
Answer: 3.13 fold

Question: And the “proteolysis of GSK-3β by pronase (DARTS)” value (GSK-3β [12])?
Answer: less sensitive to proteolysis

Question: And the “expression of OASL upon F48E9 infection” value (OASL)?
Answer: 2.51 fold

Question: Which “effect on NDV proliferation (harmine)” value (NDV F48E9 [1]) does the source give for COc1ccc2c(c1)[nH]c1c(C)nccc12 [harmine, reference compound] here?
Answer: no effect

Question: And the “anti-PRV activity (harmine)” value (PRV)?
Answer: excellent

Question: Which “effect on the proliferation of NDV” value (NDV F48E9 [1]) does the source give for Cc1cc(/C=C2\SC(=O)N(c3ccccc3)C2=O)c(C)n1-c1cccnc1 [iCRT14] here?
Answer: no effect

Question: Which “amounts of β-catenin in NDV-infected cells” value (β-catenin) does the source give for COC[C@H]1OC(=O)c2coc3c2[C@@]1(C)C1=C(C3=O)[C@@H]2CCC(=O)[C@@]2(C)C[C@H]1OC(C)=O [wortmannin] here?
Answer: no effect

— paper PMC10062145 (Journal of Virology, 2023)
